# Experimental data published in ChEMBL document CHEMBL4138123, “Design, synthesis and biological evaluation of novel pyrazolochalcones as potential modulators of PI3K/Akt/mTOR pathway and inducers of apoptosis in breast cancer cells” (Eur J Med Chem, 2017).
# Key:
# Assay type in all cases: functional
# CCRF-CEM = test: Cytotoxicity against human CCRF-CEM cells assessed as cell growth at 10 uM after 48 hrs by sulforhodamine B assay relative to control; settings: read-out: Activity
# 786-0 = test: Cytotoxicity against human 786-0 cells assessed as cell growth at 100 uM after 48 hrs by sulforhodamine B assay relative to control; settings: 786-0, 48 h, read-out: Activity
# NCI/ADR-RES = test: Cytotoxicity against human NCI/ADR-RES cells assessed as cell growth at 1 uM after 48 hrs by sulforhodamine B assay relative to control; settings: read-out: Activity
# MOLT-4 = test: Cytotoxicity against human MOLT4 cells assessed as cell growth at 10 uM after 48 hrs by sulforhodamine B assay relative to control; settings: MOLT-4, 48 h, read-out: Activity
# TK-10 = test: Cytotoxicity against human TK10 cells assessed as cell growth at 1 uM after 48 hrs by sulforhodamine B assay relative to control; settings: TK-10, 48 h, read-out: Activity
# MDA-MB-231 = test: Cytotoxicity against human MDA-MB-231 cells assessed as cell growth at 10 uM after 48 hrs by sulforhodamine B assay relative to control; settings: MDA-MB-231, 48 h, read-out: Activity
# UACC-62 [1] = test: Cytotoxicity against human UACC62 cells assessed as cell growth at 10 uM after 48 hrs by sulforhodamine B assay relative to control; settings: UACC-62, 48 h, read-out: Activity
# RPMI-8226 = test: Cytotoxicity against human RPMI8226 cells assessed as cell growth at 100 uM after 48 hrs by sulforhodamine B assay relative to control; settings: RPMI-8226, 48 h, read-out: Activity
# SN12C = test: Cytotoxicity against human SN12C cells assessed as cell growth at 0.1 uM after 48 hrs by sulforhodamine B assay relative to control; settings: read-out: Activity
# OVCAR-8 [2] = test: Cytotoxicity against human OVCAR8 cells assessed as cell growth at 1 uM after 48 hrs by sulforhodamine B assay relative to control; settings: OVCAR-8, 48 h, read-out: Activity
# HL-60(TB) = test: Cytotoxicity against human HL-60(TB) cells assessed as cell growth at 100 uM after 48 hrs by sulforhodamine B assay relative to control; settings: HL-60, 48 h, read-out: Activity
# NCI-H23 = test: Cytotoxicity against human NCI-H23 cells assessed as cell growth at 0.1 uM after 48 hrs by sulforhodamine B assay relative to control; settings: NCI-H23, 48 h, read-out: Activity
# SK-MEL-28 = test: Cytotoxicity against human SK-MEL-28 cells assessed as growth inhibition after 48 hrs by sulforhodamine B assay; settings: SK-MEL-28, 48 h
# OVCAR-4 [3] = test: Cytotoxicity against human OVCAR4 cells assessed as cell growth at 100 uM after 48 hrs by sulforhodamine B assay relative to control; settings: OVCAR-4, 48 h, read-out: Activity
# OVCAR-8 [4] = test: Cytotoxicity against human OVCAR8 cells assessed as cell growth at 100 uM after 48 hrs by sulforhodamine B assay relative to control; settings: OVCAR-8, 48 h, read-out: Activity
# SK-OV-3 = test: Cytotoxicity against human SKOV3 cells assessed as cell growth at 1 uM after 48 hrs by sulforhodamine B assay relative to control; settings: SK-OV-3, 48 h, read-out: Activity
# PC-3 [5] = test: Cytotoxicity against human PC3 cells assessed as cell growth at 0.01 uM after 48 hrs by sulforhodamine B assay relative to control; settings: PC-3, 48 h, read-out: Activity
# NCI-H322M [6] = test: Cytotoxicity against human NCI-H322M cells assessed as cell growth at 0.1 uM after 48 hrs by sulforhodamine B assay relative to control; settings: read-out: Activity
# HCT-15 = test: Cytotoxicity against human HCT15 cells assessed as growth inhibition after 48 hrs by sulforhodamine B assay; settings: HCT-15, 48 h
# K562 = test: Cytotoxicity against human K562 cells assessed as cell growth at 0.01 uM after 48 hrs by sulforhodamine B assay relative to control; settings: K562, 48 h, read-out: Activity
# SK-MEL-5 = test: Cytotoxicity against human SK-MEL-5 cells assessed as cell growth at 10 uM after 48 hrs by sulforhodamine B assay relative to control; settings: SK-MEL-5, 48 h, read-out: Activity
# RXF 393 = test: Cytotoxicity against human RXF393 cells assessed as cell growth at 10 uM after 48 hrs by sulforhodamine B assay relative to control; settings: RXF 393, 48 h, read-out: Activity
# DU-145 [7] = test: Cytotoxicity against human DU145 cells assessed as cell growth at 0.1 uM after 48 hrs by sulforhodamine B assay relative to control; settings: DU-145, 48 h, read-out: Activity
# HCC 2998 = test: Cytotoxicity against human HCC2998 cells assessed as cell growth at 0.1 uM after 48 hrs by sulforhodamine B assay relative to control; settings: HCC 2998, 48 h, read-out: Activity
# SF-539 = test: Cytotoxicity against human SF539 cells assessed as cell growth at 0.1 uM after 48 hrs by sulforhodamine B assay relative to control; settings: SF-539, 48 h, read-out: Activity
# HCT-116 [8] = test: Cytotoxicity against human HCT116 cells assessed as cell growth at 1 uM after 48 hrs by sulforhodamine B assay relative to control; settings: HCT-116, 48 h, read-out: Activity
# NCI-H226 = test: Cytotoxicity against human NCI-H226 cells assessed as cell growth at 10 uM after 48 hrs by sulforhodamine B assay relative to control; settings: NCI-H226, 48 h, read-out: Activity
# UACC-62 [9] = test: Cytotoxicity against human UACC62 cells assessed as cell growth at 0.01 uM after 48 hrs by sulforhodamine B assay relative to control; settings: UACC-62, 48 h, read-out: Activity
# MDA-MB-435 = test: Cytotoxicity against human MDA-MB-435 cells assessed as cell growth at 10 uM after 48 hrs by sulforhodamine B assay relative to control; settings: MDA-MB-435, 48 h, read-out: Activity
# HCT-116 [10] = test: Cytotoxicity against human HCT116 cells assessed as growth inhibition after 48 hrs by sulforhodamine B assay; settings: HCT-116, 48 h
# NCI-H322M [11] = test: Cytotoxicity against human NCI-H322M cells assessed as cell growth at 0.01 uM after 48 hrs by sulforhodamine B assay relative to control; settings: read-out: Activity
# MDA-MB-468 = test: Cytotoxicity against human MDA-MB-468 cells assessed as cell growth at 100 uM after 48 hrs by sulforhodamine B assay relative to control; settings: MDA-MB-468, 48 h, read-out: Activity
# DU-145 [12] = test: Cytotoxicity against human DU145 cells assessed as cell growth at 100 uM after 48 hrs by sulforhodamine B assay relative to control; settings: DU-145, 48 h, read-out: Activity
# PC-3 [13] = test: Cytotoxicity against human PC3 cells assessed as cell growth at 1 uM after 48 hrs by sulforhodamine B assay relative to control; settings: PC-3, 48 h, read-out: Activity
# OVCAR-4 [14] = test: Cytotoxicity against human OVCAR4 cells assessed as cell growth at 0.1 uM after 48 hrs by sulforhodamine B assay relative to control; settings: OVCAR-4, 48 h, read-out: Activity
structure (smiles),measurement,setting,value
COc1cc(-c2cc(/C=C/C(=O)c3ccc(N)cc3)[nH]n2)cc(OC)c1OC,growth at 10 µM,CCRF-CEM,-22%
same,growth at 100 µM,786-0,-90%
same,growth at 1 µM,NCI/ADR-RES,98%
same,growth at 10 µM,MOLT-4,-5%
same,growth at 1 µM,TK-10,102%
same,growth at 10 µM,MDA-MB-231,7%
same,growth at 10 µM,UACC-62 [1],-69%
same,growth at 100 µM,RPMI-8226,-40%
same,growth at 0.1 µM,SN12C,99%
same,growth at 1 µM,OVCAR-8 [2],81%
same,growth at 100 µM,HL-60(TB),-12%
same,growth at 0.1 µM,NCI-H23,105%
same,GI50,SK-MEL-28,1.86 µM
same,LC50,SK-MEL-28,8.93 µM
same,TGI,SK-MEL-28,4.08 µM
same,growth at 100 µM,OVCAR-4 [3],-96%
same,growth at 100 µM,OVCAR-8 [4],-91%
same,growth at 1 µM,SK-OV-3,104%
same,growth at 0.01 µM,PC-3 [5],97%
same,growth at 0.1 µM,NCI-H322M [6],103%
same,GI50,HCT-15,1.37 µM
same,LC50,HCT-15,> 100 µM
same,TGI,HCT-15,6.76 µM
same,growth at 0.01 µM,K562,100%
same,growth at 10 µM,SK-MEL-5,-95%
same,growth at 10 µM,RXF 393,-64%
same,growth at 0.1 µM,DU-145 [7],104%
same,growth at 0.1 µM,HCC 2998,108%
same,growth at 0.1 µM,SF-539,99%
same,growth at 1 µM,HCT-116 [8],56%
same,growth at 10 µM,NCI-H226,-73%
same,growth at 0.01 µM,UACC-62 [9],99%
same,growth at 10 µM,MDA-MB-435,-86%
same,GI50,HCT-116 [10],1.1 µM
same,LC50,HCT-116 [10],6.19 µM
same,TGI,HCT-116 [10],2.61 µM
same,growth at 0.01 µM,NCI-H322M [11],95%
same,growth at 100 µM,MDA-MB-468,-65%
same,growth at 100 µM,DU-145 [12],-98%
same,growth at 1 µM,PC-3 [13],76%
same,growth at 0.1 µM,OVCAR-4 [14],105%
COc1cc(C(=O)/C=C/c2cc(-c3ccc4c(c3)OCO4)n[nH]2)cc(OC)c1OC,growth at 10 µM,CCRF-CEM,-26%
same,growth at 100 µM,786-0,-83%
same,growth at 1 µM,NCI/ADR-RES,94%
same,growth at 10 µM,MOLT-4,-8%
same,growth at 1 µM,TK-10,109%
same,growth at 10 µM,MDA-MB-231,-22%
same,growth at 10 µM,UACC-62 [1],-62%
same,growth at 100 µM,RPMI-8226,-47%
same,growth at 0.1 µM,SN12C,96%
same,growth at 1 µM,OVCAR-8 [2],93%
same,growth at 100 µM,HL-60(TB),-31%
same,growth at 0.1 µM,NCI-H23,93%
same,GI50,SK-MEL-28,1.92 µM
same,LC50,SK-MEL-28,9.13 µM
same,TGI,SK-MEL-28,4.18 µM
same,growth at 100 µM,OVCAR-4 [3],-100%
same,growth at 100 µM,OVCAR-8 [4],-92%
same,growth at 1 µM,SK-OV-3,107%
same,growth at 0.01 µM,PC-3 [5],97%
same,growth at 0.1 µM,NCI-H322M [6],94%
same,GI50,HCT-15,1.95 µM
same,LC50,HCT-15,> 100 µM
same,TGI,HCT-15,6.75 µM
same,growth at 0.01 µM,K562,86%
same,growth at 10 µM,SK-MEL-5,14%
same,growth at 10 µM,RXF 393,-76%
same,growth at 0.1 µM,DU-145 [7],99%
same,growth at 0.1 µM,HCC 2998,100%
same,growth at 0.1 µM,SF-539,97%
same,growth at 1 µM,HCT-116 [8],86%
same,growth at 10 µM,NCI-H226,-41%
same,growth at 0.01 µM,UACC-62 [9],96%
same,growth at 10 µM,MDA-MB-435,-29%
same,GI50,HCT-116 [10],1.9 µM
same,LC50,HCT-116 [10],> 100 µM
same,TGI,HCT-116 [10],4.63 µM
same,growth at 0.01 µM,NCI-H322M [11],101%
same,growth at 100 µM,MDA-MB-468,-80%
same,growth at 100 µM,DU-145 [12],-97%
same,growth at 1 µM,PC-3 [13],71%
same,growth at 0.1 µM,OVCAR-4 [14],94%
